Results as given in patent publication US8609723B2 (Beijing Dingguochangsheng Biotech., Co., Ltd., priority 2008, dated 2013).

Legend:
serum corticosterone = assay: Determination of the content of serum corticosterone (chronic stress model); type: in vivo; details: stressed rats, day after 21-day stress
Excerpt: (§1) The rats in the normal control group were raised normally under a condition without any stimulation except for weighing body weight, measuring body temperature, and subjected to sugar test. All of other groups were subjected to stimulations of same type and same strength. During the experiment, different types of stimulations were applied in an unpredictable manner, and the same type of stimulation was enhanced each time.
(§2) The chronic stress course was 20 days in total, once per day, from 9:00 AM to 2:00 PM. The stress protocol was shown as follows: horizontally shaking at a high speed for 45 min; nipping tails (1 cm from the tail root): 1 min; depriving of water for 24 h; forbidding moving for 1.5 h; fasting for 24 h; stimulating with ice water (water temperature: 10° C.) for 5 min; electric shocking (1 mA, time course: is, 1 shock/min) the bottoms of feet for 30 min; changing cages and raising separately for 24 h; forbidding moving for 2 h; nipping tails (1 cm from the root of tail) for 1 min; depriving of water for 24 h; horizontally shaking at a high speed for 1.5 h; fasting for 24 h; nipping tails (1 cm from the tail root): 1 min; electric shocking (1 mA, time course: 1 s, 1 shock/min) the bottoms of feet for 40 min; stimulating with ice water for 5 min; changing cages and raising separately for 24 h; horizontally shaking at a high speed for 60 min; electric shocking (1 mA, time course: 1 s, 1 shock/min) the bottoms of feet for 50 min; depriving of water for 24 h; forbidding moving for 2.5 h; and 24 h social isolation.
In this experiment, the content of serum corticosterone was measured by a competitive method, with its mechanism shown as follow: antigens in samples and enzyme-labeled antigens compete to bind antibodies in a solid phase. The more antigens exist in samples, the less enzyme-labeled antigens bind to the solid phase, thereby resulting in a fainter coloration.
On the next day after the end of the 21-day stress period, rats were sacrificed by decollation, and 5˜10 ml whole blood was collected. A portion of the collected whole blood was kept at room temperature for 20 min, followed by centrifugation at 1000 rpm for 10 min. Serum was then separated and stored at −80° C. The serum corticosterone detection kit was used for such detection.

[1] = system: chronically stressed rats; assay: Measurement of body temperature of chronically stressed rats; type: in vivo; details: for Body temperature after stress: chronic stress 21 days
Excerpt: as §1
as §2, with “The” for “The chronic stress course was 20 days in total, once per day, from 9:00 AM to 2:00 PM. The”
The front part of a digital thermometer was coated with liquid paraffin, and then inserted into the anus of a rat with a depth of approximately 1 cm. The temperature was read twice accordingly and averaged.

S-180 sarcoma cells = assay: Survival experiment of tumor-bearing mice; type: in vivo; details: S-180-bearing mice, 7-day dosage by single administration; 95% confidence interval 12.8~20.2 days
Procedure: During the experiment, the mice were inoculated with S-180 sarcoma cells (×10^5) in armpits, and the next day the administration begins. The survival rate was recorded for each group.

Esophageal cancer cell = assay: Inhibitory effect on tumor cells, MTT method; type: cell-based; details: 25 μM, 72 h
Procedure: (§3) The tumor cells with a stable passage feature, including Hela tumor cells, renal cancer cells, breast cancer cells, gastric cancer cells, rectal cancer cells, pulmonary cancer cells, hepatic cancer cells HepG2, prostate cancer cells, esophageal cancer cells, sarcoma cells, glioma cells, melanoma cells, lymphoma cells, and bladder cancer cells, were counted under a microscope (×10^4), and cultured in a 96-well plate under CO2 saturated water vapor for 24 h.

Breast cancer cell BT474 = assay: Inhibitory effect on tumor cells, MTT method; type: cell-based; details: Breast cancer cell BT474, 25 μM, 72 h
Procedure: as §3

Glioma cell = assay: Inhibitory effect on tumor cells, MTT method; type: cell-based; details: 25 μM, 72 h
Procedure: as §3

Bladder cancer cell = assay: Inhibitory effect on tumor cells, MTT method; type: cell-based; details: 25 μM, 72 h
Procedure: as §3

[2] = system: Gastric cancer cell MGC80-3; assay: Inhibitory effect on tumor cells, MTT method; type: cell-based; details: Gastric cancer cell MGC80-3, 25 μM, 72 h
Procedure: as §3

[3] = system: Hepatic cancer cell HepG2; assay: Inhibitory effect on tumor cells, MTT method; type: cell-based; details: Hepatic cancer cell HepG2, 25 μM, 72 h
Procedure: as §3

Prostate cancer cell = assay: Inhibitory effect on tumor cells, MTT method; type: cell-based; details: 25 μM, 72 h
Procedure: as §3

Renal cancer cell 7860 = assay: Inhibitory effect on tumor cells, MTT method; type: cell-based; details: Renal cancer cell 7860, 25 μM, 72 h
Procedure: as §3

Melanoma cell = assay: Inhibitory effect on tumor cells, MTT method; type: cell-based; details: 25 μM, 72 h
Procedure: as §3

Sarcoma cell = assay: Inhibitory effect on tumor cells, MTT method; type: cell-based; details: 25 μM, 72 h
Procedure: as §3

Lymphoma cell = assay: Inhibitory effect on tumor cells, MTT method; type: cell-based; details: 25 μM, 72 h
Procedure: as §3

[4] = system: Rectal cancer cell HCT116; assay: Inhibitory effect on tumor cells, MTT method; type: cell-based; details: Rectal cancer cell HCT116, 25 μM, 72 h
Procedure: as §3

[5] = system: Pulmonary cancer cell A549; assay: Inhibitory effect on tumor cells, MTT method; type: cell-based; details: Pulmonary cancer cell A549, 25 μM, 72 h
Procedure: as §3

Hela cell = assay: Inhibitory effect on tumor cells, MTT method; type: cell-based; details: 25 μM, 72 h
Procedure: as §3

[6] = 4.6 mg/kg subcutaneous once every 7 days
[7] = 9.2 mg/kg subcutaneous once every 7 days
[8] = 18.4 mg/kg subcutaneous once every 7 days

curcumin decanoate [long acting curcumin]
serum corticosterone (serum corticosterone; 4.6 mg/kg once every 7 days): 239.5 ± 33.7 nmol/L
serum corticosterone (serum corticosterone; 9.2 mg/kg once every 7 days): 222.9 ± 30.6 nmol/L
serum corticosterone (serum corticosterone; 18.4 mg/kg once every 7 days): 199.6 ± 28.0 nmol/L
Body temperature before stress [1, 6]: 37.06 ± 0.125 °C
Body temperature after stress [1, 6]: 37.40 ± 0.079 °C
Body temperature before stress [1, 7]: 37.06 ± 0.158 °C
Body temperature after stress [1, 7]: 37.45 ± 0.074 °C
Body temperature before stress [1, 8]: 37.00 ± 0.122 °C
Body temperature after stress [1, 8]: 37.48 ± 0.088 °C
medium survival time (S-180 sarcoma cells): 17.5 days
Inhibitory rate (%) (Esophageal cancer cell): 35.5 ± 1.1%
Inhibitory rate (%) (Breast cancer cell BT474): 52.7 ± 1.6%
Inhibitory rate (%) (Glioma cell): 58.8 ± 1.5%
Inhibitory rate (%) (Bladder cancer cell): 55.2 ± 1.0%
Inhibitory rate (%) [2]: 42.6 ± 1.7%
Inhibitory rate (%) [3]: 43.7 ± 1.4%
Inhibitory rate (%) (Prostate cancer cell): 39.7 ± 1.3%
Inhibitory rate (%) (Renal cancer cell 7860): 60.6%
Inhibitory rate (%) (Melanoma cell): 49.9 ± 2.0. %
Inhibitory rate (%) (Sarcoma cell): 45.5 ± 1.6%
Inhibitory rate (%) (Lymphoma cell): 55.8 ± 1.7%
Inhibitory rate (%) [4]: 58.9 ± 2.1%
Inhibitory rate (%) [5]: 35.9 ± 1.2%
Inhibitory rate (%) (Hela cell): 37.3 ± 2.4%
